In patent US7795294B2, “Tetrahydro-2H-indazole pyrazole cannabinoid modulators” (Janssen Pharmaceutica N.V., priority 2006, dated 2010):
Where two headings read alike, the source gives them in different places.

What was measured:
human CB2 receptor = target: T1, human CB2 receptor (Homo sapiens, UniProt P34972); experiment: Binding assay for CB2 agonists or inverse agonists, [3H]-CP-55,940 displacement on membranes of transfected SK-N-MC cells
T1 construct: expressed in transfected cells; host or cells: SK-N-MC cells, stably transfected with pcDNA3 CB-2 (human); semi-purified membrane pellet
Procedure: (§1) The human CB1 and CB2 receptors were stably expressed in SK-N-MC cells transfected with pcDNA3 CB-1 (human) or pcDNA3 CB-2 (human). The cells were grown in T-180 cell culture flasks under standard cell culture conditions at 37° C. in a 5% CO2 atmosphere. The cells were harvested by trysinization and homogenized in a homogenization buffer (10 mM Tris, 0.2 mM MgCl2, 5 mM KCl, with protease inhibitors aprotinin, leupeptin, pepstatin A and bacitracin) and centrifuged (2000 g). The supernatant was then centrifuged in 2M sucrose (31,300 g) to produce a semi-purified membrane pellet. The pellet was resuspended in homogenization and stored at −80° C.
(§2) On the day of the assay, the pellet was thawed on ice and diluted in assay buffer (50 mM Tris-HCl, 5 mM MgCl2, 2.5 mM EDTA, 0.5 mg/mL fatty acid free bovine serum albumin, pH 7.5). […] The plate was covered and incubated for 90 minutes at 30° C. The contents were then aspirated onto a Packard Unifilter GF/C filter bottom plate prewet with 0.5% polyethyleneimine. The wells of the polypropylene plate were rinsed and aspirated seven times with a 0.9% saline-0.5% Tween 20 solution. The Unifilter plate was dried, a scintillation cocktail was added to each well and the counts representing binding were quantitated in a TopCount scintillation counter.
(§3) For compounds tested, an IC50 binding value was obtained from percent inhibition studies in which various test concentrations were used. The binding value was calculated by linear regression. An average value is shown for those compounds where two or more IC50 values were obtained.
(§4) An average value is shown for those compounds where two or more percent inhibition values were obtained.

human CB1 receptor = target: T2, human CB1 receptor (Homo sapiens, UniProt P21554); experiment: Binding assay for CB1 agonists or inverse agonists, [3H]-CP-55,940 displacement on membranes of transfected SK-N-MC cells; conditions: for inhibition at 0.2 µM: read-out: Cannabinoid CB1 Receptor Binding percent inhibition
T2 construct: expressed in transfected cells; host or cells: SK-N-MC cells, stably transfected with pcDNA3 CB-1 (human); semi-purified membrane pellet
Procedure: as §1, §2, §3, §4

[1] = read-out: Cannabinoid CB2 Receptor Binding percent inhibition

T2 sequence (P21554 whole entry): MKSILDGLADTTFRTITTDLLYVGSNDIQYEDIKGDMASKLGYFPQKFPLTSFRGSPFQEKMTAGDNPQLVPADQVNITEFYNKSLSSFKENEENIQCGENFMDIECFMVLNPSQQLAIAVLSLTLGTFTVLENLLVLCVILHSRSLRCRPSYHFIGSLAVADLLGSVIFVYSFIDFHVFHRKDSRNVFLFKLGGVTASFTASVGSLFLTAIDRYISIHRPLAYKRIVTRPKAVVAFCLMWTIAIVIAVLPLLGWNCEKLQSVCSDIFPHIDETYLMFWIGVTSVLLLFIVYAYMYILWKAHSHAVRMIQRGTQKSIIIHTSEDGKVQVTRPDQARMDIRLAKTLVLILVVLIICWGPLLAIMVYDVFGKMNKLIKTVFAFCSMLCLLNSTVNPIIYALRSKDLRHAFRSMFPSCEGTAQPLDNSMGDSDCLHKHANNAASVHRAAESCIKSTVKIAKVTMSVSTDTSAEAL
T1 sequence (P34972 whole entry): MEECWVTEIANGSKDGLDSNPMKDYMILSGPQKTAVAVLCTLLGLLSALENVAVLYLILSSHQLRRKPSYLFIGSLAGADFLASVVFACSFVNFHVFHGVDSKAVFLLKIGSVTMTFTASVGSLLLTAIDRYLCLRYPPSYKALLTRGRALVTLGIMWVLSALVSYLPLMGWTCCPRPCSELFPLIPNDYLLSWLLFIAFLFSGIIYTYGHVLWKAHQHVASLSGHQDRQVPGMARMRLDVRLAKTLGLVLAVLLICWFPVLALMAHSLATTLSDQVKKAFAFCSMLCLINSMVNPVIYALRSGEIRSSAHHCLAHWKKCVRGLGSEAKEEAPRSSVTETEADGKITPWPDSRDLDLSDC

C[C@@H](NC(=O)[C@@H]1CCCc2c1nn(-c1ccc(Cl)cc1Cl)c2-c1ccc(Br)s1)c1ccccc1 [Cpd 53, (7R)-3-(5-bromo-thiophen-2-yl)-2-(2,4-dichloro-phenyl)-4,5,6,7-tetrahydro-2H-indazole-7-carboxylic acid [(1R)-1-phenyl-ethyl]-amide]
inhibition at 0.2 µM (human CB2 receptor; [1]): 36% | IC50 (human CB1 receptor): 4 nM

C[C@@H](NC(=O)[C@H]1CCCc2c1nn(-c1ccc(Cl)cc1Cl)c2-c1ccc(F)cc1)c1ccccc1 [Cpd 37, (7S)-2-(2,4-dichloro-phenyl)-3-(4-fluoro-phenyl)-4,5,6,7-tetrahydro-2H-indazole-7-carboxylic acid [(1R)-1-phenyl-ethyl]-amide]
inhibition at 0.2 µM (human CB2 receptor; [1]): 4% | inhibition at 0.2 µM (human CB1 receptor): 50%

CC(NC(=O)C1CCCc2c1nn(Cc1ccccc1)c2-c1ccc(Cl)cc1)C1CCCCC1 (centres unmarked) [Cpd 5, 2-benzyl-3-(4-chloro-phenyl)-4,5,6,7-tetrahydro-2H-indazole-7-carboxylic acid (1-cyclohexyl-ethyl)-amide]
IC50 (human CB2 receptor): 6100 nM | IC50 (human CB1 receptor): 700 nM

C[C@@H](NC(=O)[C@H]1CCCc2c1nn(-c1ccc(Cl)cc1Cl)c2-c1ccc(Cl)cc1)c1ccccc1 [Cpd 39, (7S)-3-(4-chloro-phenyl)-2-(2,4-dichloro-phenyl)-4,5,6,7-tetrahydro-2H-indazole-7-carboxylic acid [(1R)-1-phenyl-ethyl]-amide]
inhibition at 0.2 µM (human CB2 receptor; [1]): 1% | IC50 (human CB1 receptor): 22 nM

CN(NC(=O)C1CCCc2c1nn(-c1ccc(Cl)cc1Cl)c2-c1ccc(Cl)cc1)c1ccccc1 (centres unmarked) [Cpd 35, 3-(4-chloro-phenyl)-2-(2,4-dichloro-phenyl)-4,5,6,7-tetrahydro-2H-indazole-7-carboxylic acid N′-methyl-N′-phenyl-hydrazide]
inhibition at 0.2 µM (human CB2 receptor; [1]): 3% | IC50 (human CB1 receptor): 2 nM

COc1ccc(-c2c3c(nn2-c2ccc(Cl)cc2Cl)C(C(=O)NN2CCCCCC2)CCC3)cc1 (centres unmarked) [Cpd 22, 2-(2,4-dichloro-phenyl)-3-(4-methoxy-phenyl)-4,5,6,7-tetrahydro-2H-indazole-7-carboxylic acid azepan-1-ylamide]
inhibition at 0.2 µM (human CB2 receptor; [1]): 22% | inhibition at 0.2 µM (human CB1 receptor): 59%

C[C@@H](NC(=O)C1CCCc2c1nn(-c1ccc(Cl)cc1Cl)c2-c1ccc(Br)cc1)C1CCCCC1 (stereo partly drawn) [Cpd 44, 3-(4-bromo-phenyl)-2-(2,4-dichloro-phenyl)-4,5,6,7-tetrahydro-2H-indazole-7-carboxylic acid [(1R)-1-cyclohexyl-ethyl]-amide]
inhibition at 0.2 µM (human CB2 receptor; [1]): 21% | IC50 (human CB1 receptor): 2 nM

C[C@@H](NC(=O)[C@@H]1CCCc2c1nn(-c1ccc(Cl)cc1Cl)c2-c1ccc(Cl)s1)c1ccccc1 [Cpd 49, (7R)-3-(5-chloro-thiophen-2-yl)-2-(2,4-dichloro-phenyl)-4,5,6,7-tetrahydro-2H-indazole-7-carboxylic acid [(1R)-1-phenyl-ethyl]-amide]
inhibition at 0.2 µM (human CB2 receptor; [1]): 14% | IC50 (human CB1 receptor): 7 nM

C[C@@H](NC(=O)[C@H]1CCCc2c1nn(-c1ccc(Cl)cc1Cl)c2-c1ccc(Br)s1)C1CCCCC1 [Cpd 54, (7S)-3-(5-bromo-thiophen-2-yl)-2-(2,4-dichloro-phenyl)-4,5,6,7-tetrahydro-2H-indazole-7-carboxylic acid [(1R)-1-cyclohexyl-ethyl]-amide]
inhibition at 0.2 µM (human CB2 receptor; [1]): 12% | inhibition at 0.2 µM (human CB1 receptor): 35%

O=C(NN1CCCCC1)[C@@H]1CCCc2c1nn(-c1ccc(Cl)cc1Cl)c2-c1ccc(Br)cc1 [Cpd 51, (7R)-3-(4-bromo-phenyl)-2-(2,4-dichloro-phenyl)-4,5,6,7-tetrahydro-2H-indazole-7-carboxylic acid piperidin-1-ylamide]
inhibition at 0.2 µM (human CB2 receptor; [1]): 27% | IC50 (human CB1 receptor): 14 nM

CC(NC(=O)C1CCCc2c1nn(Cc1ccccc1)c2-c1ccc(Cl)cc1)C12CC3CC(CC(C3)C1)C2 (centres unmarked) [Cpd 18, 2-benzyl-3-(4-chloro-phenyl)-4,5,6,7-tetrahydro-2H-indazole-7-carboxylic acid (1-adamantan-1-yl-ethyl)-amide]
IC50 (human CB2 receptor): 1900 nM | IC50 (human CB1 receptor): 6200 nM

CCOC(=O)[C@H]1C2CCC(C2)[C@@H]1NC(=O)C1CCCc2c1nn(-c1ccc(OC)cc1)c2-c1ccc(C)cc1 (stereo partly drawn) [Cpd 3, (2S,3S)-3-{[2-(4-methoxy-phenyl)-3-p-tolyl-4,5,6,7-tetrahydro-2H-indazole-7-carbonyl]-amino}-bicyclo[2.2.1]heptane-2-carboxylic acid ethyl ester]
IC50 (human CB2 receptor; radioligand CP-55,940 0.2 nM, average where two or more values, read-out: Cannabinoid CB2 Receptor Binding IC50): 370 nM | IC50 (human CB1 receptor): 60 nM

COc1ccc(-c2c3c(nn2-c2ccc(Cl)cc2Cl)C(C(=O)N[C@H](C)c2ccccc2)CCC3)cc1 (stereo partly drawn) [Cpd 23, 2-(2,4-dichloro-phenyl)-3-(4-methoxy-phenyl)-4,5,6,7-tetrahydro-2H-indazole-7-carboxylic acid [(1R)-1-phenyl-ethyl]-amide]
inhibition at 0.2 µM (human CB2 receptor; [1]): 28% | IC50 (human CB1 receptor): 8 nM

COc1ccc(-n2nc3c(c2-c2ccc(C)cc2)CCCC3C(=O)N[C@H]2C3(C)CCC(C3)C2(C)C)cc1 (stereo partly drawn) [Cpd 16, 2-(4-methoxy-phenyl)-3-p-tolyl-4,5,6,7-tetrahydro-2H-indazole-7-carboxylic acid [(2S)-1,3,3-trimethyl-bicyclo[2.2.1]hept-2-yl]-amide]
inhibition at 25 µM (human CB2 receptor; [1]): 66% | IC50 (human CB1 receptor; radioligand CP-55,940 0.2 nM, average where two or more values, read-out: Cannabinoid CB1 Receptor Binding IC50): 180 nM

O=C(NN1CCCCCC1)C1CCCc2c1nn(-c1ccc(Cl)cc1Cl)c2-c1ccc(Cl)cc1 (centres unmarked) [Cpd 34, 3-(4-chloro-phenyl)-2-(2,4-dichloro-phenyl)-4,5,6,7-tetrahydro-2H-indazole-7-carboxylic acid azepan-1-ylamide]
inhibition at 0.2 µM (human CB2 receptor; [1]): 0% | IC50 (human CB1 receptor): 35 nM

CC(NC(=O)C1CCCc2c1nn(Cc1ccccc1)c2-c1cccc(F)c1)C12CCC3CC(CC3C1)C2 (centres unmarked) [Cpd 20, 2-benzyl-3-(3-fluoro-phenyl)-4,5,6,7-tetrahydro-2H-indazole-7-carboxylic acid [1-(octahydro-2,5-methano-inden-5-yl)-ethyl]-amide]
IC50 (human CB2 receptor): 70 nM | IC50 (human CB1 receptor): 130 nM

C[C@@H](NC(=O)[C@@H]1CCCc2c1nn(-c1ccc(Cl)cc1Cl)c2-c1ccc(Cl)cc1)c1ccccc1 [Cpd 40, (7R)-3-(4-chloro-phenyl)-2-(2,4-dichloro-phenyl)-4,5,6,7-tetrahydro-2H-indazole-7-carboxylic acid [(1R)-1-phenyl-ethyl]-amide]
inhibition at 0.2 µM (human CB2 receptor; [1]): 11% | IC50 (human CB1 receptor): 0.6 nM

COc1ccc(-c2c3c(nn2-c2ccc(Cl)cc2Cl)[C@H](C(=O)N[C@H](C)c2ccccc2)CCC3)cc1 [Cpd 24, (7R)-2-(2,4-dichloro-phenyl)-3-(4-methoxy-phenyl)-4,5,6,7-tetrahydro-2H-indazole-7-carboxylic acid [(1R)-1-phenyl-ethyl]-amide]
inhibition at 0.2 µM (human CB2 receptor; [1]): 28% | inhibition at 0.2 µM (human CB1 receptor): 58%

C[C@@H](NC(=O)C1CCCc2c1nn(-c1ccc(Cl)cc1Cl)c2-c1ccc(Cl)cc1)C1CCCCC1 (stereo partly drawn) [Cpd 29, 3-(4-chloro-phenyl)-2-(2,4-dichloro-phenyl)-4,5,6,7-tetrahydro-2H-indazole-7-carboxylic acid [(1R)-1-cyclohexyl-ethyl]-amide]
inhibition at 0.2 µM (human CB2 receptor; [1]): 7% | IC50 (human CB1 receptor): 1 nM

O=C(NN1CCCCC1)C1CCCc2c1nn(-c1ccc(Cl)cc1Cl)c2-c1ccc(Br)cc1 (centres unmarked) [Cpd 41, 3-(4-bromo-phenyl)-2-(2,4-dichloro-phenyl)-4,5,6,7-tetrahydro-2H-indazole-7-carboxylic acid piperidin-1-ylamide]
inhibition at 0.2 µM (human CB2 receptor; [1]): 26% | IC50 (human CB1 receptor): 40 nM

O=C(N[C@H](CO)c1ccccc1)[C@H]1CCCc2c1nn(-c1ccc(Cl)cc1Cl)c2-c1ccc(Br)s1 [Cpd 56, (7S)-3-(5-bromo-thiophen-2-yl)-2-(2,4-dichloro-phenyl)-4,5,6,7-tetrahydro-2H-indazole-7-carboxylic acid [(1S)-2-hydroxy-1-phenyl-ethyl]-amide]
IC50 (human CB2 receptor): 300 nM | IC50 (human CB1 receptor): 46 nM

C[C@@H](NC(=O)[C@H]1CCCc2c1nn(-c1ccc(Cl)cc1Cl)c2-c1ccc(Br)s1)c1ccccc1 [Cpd 52, (7S)-3-(5-bromo-thiophen-2-yl)-2-(2,4-dichloro-phenyl)-4,5,6,7-tetrahydro-2H-indazole-7-carboxylic acid [(1R)-1-phenyl-ethyl]-amide]
inhibition at 0.2 µM (human CB2 receptor; [1]): 20% | inhibition at 0.2 µM (human CB1 receptor): 44%

Cc1ccc(-c2c3c(nn2Cc2ccccc2)C(C(=O)NC(C)C2CCCCC2)CCC3)cc1 (centres unmarked) [Cpd 8, 2-benzyl-3-p-tolyl-4,5,6,7-tetrahydro-2H-indazole-7-carboxylic acid (1-cyclohexyl-ethyl)-amide]
IC50 (human CB2 receptor): 1100 nM | IC50 (human CB1 receptor): 240 nM

COc1ccc(-c2c3c(nn2-c2ccc(Cl)cc2Cl)C(C(=O)N[C@H](C)c2ccccn2)CCC3)cc1 (stereo partly drawn) [Cpd 27, 2-(2,4-dichloro-phenyl)-3-(4-methoxy-phenyl)-4,5,6,7-tetrahydro-2H-indazole-7-carboxylic acid [(1R)-1-pyridin-2-yl-ethyl]-amide]
IC50 (human CB1 receptor): 31 nM
